Assays:
[1] = Laser Doppler circulation in five human subjects (Example 8); format: in vivo; settings: positive control formulation, 0.1%
Source text: This example illustrates delivery of nitric oxide formulations to five human subjects, using procedures and formulations similar to those discussed in Example 5. Each person served as their own control for the testing. A Moor Instruments Laser Doppler was used to determine circulation. […] The formulations used produce positive, almost immediate results when applied to the skin which, in these studies, was manifested by vasodilatation of the cutaneous vascular system.
For each subject, the following creams were applied: a negative control formulation (containing no NO), 0.010 gram of a 10,000 ppm NO formulation, 0.020 gram of a 10,000 ppm NO formulation, and a positive control formulation containing 0.1% methyl nicotinate. The formulations were prepared using procedures similar to those discussed in Example 1.

[2] = Laser Doppler capillary blood flow in humans, 10,000 ppm NO in closed chamber (Example 5); format: in vivo, human; settings: positive control, 1/10% in alcohol applied to skin
Source text: The formulation used in these studies contained nitric oxide dispersed in a lipid matrix. […] Nitric oxide is a very rapid acting molecule, and these studies used a system that employed laser Doppler with a covered chamber. The formulation was placed into the chamber and then attached to the skin by an adhesive layer on the covering. This provided a stable measuring device as determined by multiple normal evaluations of the capillary blood flow without treatment of nitric oxide.
A known positive control, methyl nicotinate, was applied to the skin at a concentration of 1/10% in alcohol. […] The vascular dynamics are such that when the blood vessels dilate physical parameters follow Bernoulli's law. This states that as one increases the diameter of a tube containing a liquid to flow will increase but the pressure and the speed of the liquid will decrease. The laser Doppler device accurately measured these parameters.
The test product was labeled as 10,000 ppm NO (nitric oxide). The study participants had 100 mg of the test product applied in a closed Hilltop chamber on the forearm. […]
A Moor Instruments DRT4 Laser Doppler Blood Flow Monitor (Devon, England) was used in these studies. The laser Doppler technique measured blood flow in the microcapillaries of the skin that are close to the skin surface and the blood flow in underlying arterioles and venules that help to regulate skin temperature. […]

[3] = Nitric oxide gas bubbled through carrier, change in weight; format: physicochemical; settings: NO bubbled 40 hr, 25 ° C.
Experimental: This example illustrates one technique for preparing a composition in accordance with one embodiment of the invention. An accurate amount of a carrier (HNC 167-62) (see below) was introduced into a system. The carrier weight used in these experiments was approximately 250 g and the vessel size was 500 ml. The vessel was equipped with a mechanical stirrer, gas inlet, and gas outlet and was previously purged with argon for about an hour. The temperature of the carrier was kept at about 25-30° C. NO gas regulated at 5 psi (1 psi is about 6,900 Pa) and was then introduced at a controlled rate of about 1 bubble/s with continuous stirring. […] After 6 hours, the weight of the carrier had increased by 0.15%, by 12 hours by 0.25%, and by 24 hours by 0.56%. These increases in weight were believed to be significant considering the relative small molecular weight of NO versus the carrier. […] The carrier also can solidify upon cooling if the carrier is initially a solid at lower temperature.
Each carrier was taken in a 500 mL three necked flask equipped with a mechanical stirrer, gas inlet and a gas outlet. The system was purged with argon for one hour at room temperature (25° C.). Then nitric oxide gas was bubbled into the system. Then, nitric oxide gas was bubbled through carrier for stipulated amount of time. The changes in weight and color were noted. […]

Row | SMILES | vasodilatation [1] | laser Doppler response of skin blood flow [2] | % Wt. gain [3]
1 | COC(=O)c1cccnc1 [methyl nicotinate] | vasodilatation was observed | rapid response typical of the vasodilator | 
2 | OCCCO [1,3-Propanediol, 1,3-propanediol] |  |  | 0.09%

— US9827316B2, “Cardiovascular disease treatment and prevention” (priority 2013, dated 2017)
